*1 amine or outer side, *2 acyl side, *3 side chain or, on linkers, in order; H or OH if unused. Where a SMILES comes first, the peptide text is derived from it. Bridges are numbered along the chain shown (N, C = ends). [ ]: non-standard residue; d: D form. βAsp = O=C(O)[C@H](CC(=O)[*:2])N[*:1] Some results are limits rather than exact numbers.

Here are results for 2 compounds from PMC3543424, “Antitumor Activity of Antimicrobial Peptides Containing CisoDGRC in CD13 Negative Breast Cancer Cells” (PLoS ONE, 2013).

One series concerns HFF. As to conditions: MTT, 24 h.
Series [1] deals with MDA-MB-231 cells. It is filed as cell-based, human. The method, then: (§1) The MCF-7 and MDA-MB-231 cells were cultured in 96-well plates at a density of 5×10^4 cells/well. CDAK and CRLK were added to different wells, ranging from 10 µg/ml to 200 µg/ml, respectively. After 24 h, 48 h and 72 h, 3-[4,5-dimethylthiazol- 2-yl]-2,5-diphenyltetrazolium bromide (MTT; Sigma-Aldrich, St. Louis, MO, USA) was added to each well and incubated for 4 h. The MTT was dissolved in 200 µL of Dimethyl sulfoxide (DMSO). Absorbance was detected using a microplate reader at 490 nm. Wells without peptides were used to control cell viability, representing 100% cell survival. Wells without cells were used for the blank of the spectrophotometer.

For series [2], the system named is MCF-7 cells. It is filed as cell-based, human. The protocol: as §1
In another series the test system is HUVEC. To be noted: MTT, 24 h.
A further series has as its system lung and liver. Further details: species or system BALB/cnu-nu athymic nude mice. As to conditions: mouse, in vivo, iv, 4 mg/kg. From the text: Terminal deoxynucleotidyl teansferase-mediated dUTP nick end-labeling (TUNEL) were examined in the lung and liver using TdT In Situ Apoptosis Detection Kit (Trevigen, Gaithersburg, Maryland, USA) following the manufacturer's protocols. Apoptosis cells were identified as having brown nuclei under a light microscope. The number of apoptosis cells was counted in five random fields (×400) in a blinded manner.

For series [3], the system named is MDA-MB-231 cells. Description: Cell cycle, BrdU/PI flow cytometry. It is filed as cell-based, human. To be noted: MDA-MB-231, 24 h, CDAK 212 µg/ml, CRLK 200 µg/ml. The protocol:
(§2) After being incubated with CDAK (190 µg/ml and 212 µg/ml), CRLK (200 µg/ml) and control (PBS) for 24 h, 20 µM BrdU (Sigma-Aldrich, St. Louis, MO, USA) was added to the media for 30 min. Cells were harvested and fixed in iced-cold 75% ethanol for 24 h. Then, the cells were treated with 4N HCL, neutralized by 0.1 M borax, and washed with PBS containing 0.05% bovine serum albumin (BSA). The cells were incubated sequentially with anti-BrdU antibody (santa cruz biotechnology, California, US) and FITC-conjugate anti-mouse secondary antibody in the presence of 0.5%BSA and 0.5%Tween-20. Cells were added PI (50 µg/ml) and RNase A (50 µg/ml) for 20 minutes and analyzed by flow cytometry. Select a forward scatter (FSC) versus side scatter (SSC) window defined single cells and exclude cell doublets.
Background: In flow cytometry, cells or beads pass a laser one at a time.

Series [4] relates to MCF-7 cells. The series is described as follows: Cell cycle, BrdU/PI flow cytometry. It is filed as cell-based, human. To be noted: MCF-7, 24 h, CDAK 190 µg/ml, CRLK 200 µg/ml. The method, then: as §2
Series [5] deals with MDA-MB-231 cells. Description: DNA ladder (DNA fragmentation) assay. The format is cell-based, human. As to conditions: MDA-MB-231, 24 h; CDAK 212 µg/ml, CRLK 200 µg/ml; 1% agarose gel. The method, then:
(§3) For DNA fragmentation analysis, DAN of cells which were treated with CDAK (190 µg/ml and 212 µg/ml), CRLK (200 µg/ml) and control (PBS) for 24 h were extracted using a selective apoptotic DNA ladder extraction KIT (Biomed Company, Beijing, China) and were analyzed using 1% agarose gels. DNA was visualized with ethidium bromide staining.

For series [6], the system named is MCF-7 cells. Description: DNA ladder (DNA fragmentation) assay. It is filed as cell-based, human. To be noted: MCF-7, 24 h; CDAK 190 µg/ml, CRLK 200 µg/ml; 1% agarose gel. The method, then: as §3
The subject of series [7] is MDA-MB-231 xenograft. Description: Tumor angiogenesis, anti-CD105 immunohistochemistry (microvessel density). It is filed as in vivo, BALB/cnu-nu athymic nude mice. To be noted: 4 mg/kg intravenously, tumor sections, P<0.05. The method, then:
Tumor-bearing athymic nude mice were sacrificed and the weights of the tumors were recorded. The tumor tissue, liver as well as lung tissues of mice were paraffin-embedded. The tumor paraffin sections were incubated for 10 minutes with 3% H2O2 deionized water to eliminate the endogenous peroxidase activity, washed in PBS three times for five minutes, 5% goat serum was added for 15 minutes, then incubated with mouse monoclonal CD105 antibody (Abcam, Cambridge, UK) at 4°C overnight and washed with PBS three times for five minutes. The biotin-labeled goat anti-mouse IgG were incubated with sections at 37°C for 15 minutes, and then the sections were washed by PBS three times for five minutes. Horseradish peroxidase-avidin enzyme working solution was added at 37°C for 15 minutes and washed with PBS. DAB was added to develop the color, and the nuclei were counterstained mildly with hematoxylin. The liver and lung paraffin sections were stained with hemaetoxylin and eosin (HE) and were independently evluated by two pathologists.

Series [8] has as its system MDA-MB-231 xenograft. Description: MDA-MB-231 xenograft growth in athymic nude mice. The format is in vivo, BALB/cnu-nu athymic nude mice. To be noted: 4 mg/kg intravenously, three times a week for three weeks, five mice per group. The method, then:
The experiment was approved by the Animal Care and Use Committee of Xi'an Jiaotong University. MDA-MB-231 cells (2×10^6) were injected subcutaneously into the right flank of 6- to 9-week-old female BALB/cnu-nu athymic nude mice (Shanghai Silaike Laboratory Animal Co., Ltd, Shanghai, China) weighing 18 to 20 g. When the tumor reached 60 mm^3 in size, the mice were randomized into three groups: (1) CDAK (4 mg/kg); (2) CRLK (4 mg/kg); and (3) saline (control). They were then injected intravenously (50 µL/injection) three times a week for three weeks. Tumor volume was measured three times a week using calipers to calculate the tumor size using the following formula: length×width^2×0.5. All values are expressed as the mean ± SD.
Tumor-bearing athymic nude mice were sacrificed and the weights of the tumors were recorded. The tumor tissue, liver as well as lung tissues of mice were paraffin-embedded. The tumor paraffin sections were incubated for 10 minutes with 3% H2O2 deionized water to eliminate the endogenous peroxidase activity, washed in PBS three times for five minutes, 5% goat serum was added for 15 minutes, then incubated with mouse monoclonal CD105 antibody (Abcam, Cambridge, UK) at 4°C overnight and washed with PBS three times for five minutes. […]

In the case of `CC[C@H](C)[C@H](NC(=O)[C@H](CC(C)C)NC(=O)[C@H](CC(C)C)NC(=O)[C@@H]1CSSC[C@H](N)C(=O)N[C@H](C(=O)O)CC(=O)NCC(=O)N[C@@H](CCCNC(=N)N)C(=O)N1)C(=O)N[C@H](C(=O)N[C@@H](CCCCN)C(=O)N[C@@H](CC(C)C)C(=O)N[C@@H](C)C(=O)N[C@@H](CCCCN)C(=O)N[C@@H](CC(C)C)C(=O)N[C@@H](C)C(=O)N[C@@H](CCCCN)C(=O)N[C@@H](CCCCN)C(=O)N[C@@H](CC(C)C)C(=O)N[C@@H](C)C(=O)N[C@@H](CCCCN)C(=O)N[C@@H](CC(C)C)C(=O)N[C@@H](C)C(=O)N[C@@H](CCCCN)C(=O)O)[C@@H](C)CC` [CDAK] (H-C[βAsp]GRCLLIIKLAKLAKKLAKLAK-OH; disulfide 1-5), the “IC50 (peptide concentration that induces 50% inhibition of cell growth)” value with HFF was determined as 912 µg/mL; with MDA-MB-231 cells [1] (MDA-MB-231, MTT, 24 h) it was 212 µg/mL; in the series on MCF-7 cells [2] (MCF-7, MTT, 24 h) it was 190 µg/mL; in the series with HUVEC, 861 µg/mL. In addition, the “concentration with significant cytotoxicity” value in the series with MDA-MB-231 cells [1] and with MCF-7 cells [2] was above 40000 ng/mL each time. The “apoptosis rate (%) in liver” value with lung and liver was 0.38%±0.14. Also, in the series on lung and liver, the “apoptosis rate (%) in lung” value was 0.16±0.02%.
As to CRDGCALKAIAKLKLKKLILALK [CRLK], the figures for the “cells in S phase” value in the series on MDA-MB-231 cells [3] and in the series with MCF-7 cells [4] were 23.3% and 19.7%, respectively. Moreover, the “formation of DNA nucleosome ladder” value with MDA-MB-231 cells [5] and in the series with MCF-7 cells [6] was “no DNA ladder was detected” each time. The “inhibition of angiogenesis (microvessel density, anti-CD105)” value in the series on MDA-MB-231 xenograft [7] is given as “not”. Also, the “tumor volume compared with control group” value in the series with MDA-MB-231 xenograft [8] was “did not reach a statistically significance”. Moreover, in the series with lung and liver, the “apoptosis rate (%) in liver” value is given as 0.35%±0.23. Besides, in the series with lung and liver, the “apoptosis rate (%) in lung” value is 0.17±0.01%.
